This note sets out measurements from publication PMC6751662, “Pharmacological and functional similarities of the human neuropeptide Y system in C. elegans challenges phylogenetic views on the FLP/NPR system” (Cell Communication and Signaling : CCS, 2019).

Experiment [1] deals with mock (empty vector) transfected HEK293 cells. Description: IP accumulation assay, negative control: empty vector (mock) instead of the receptor. It counts as cell-based, Homo sapiens. Particulars: 1 h, HBSS + 20 mM LiCl, HEK293 with empty vector instead of receptor (negative control), HTRF IP-One, mean of >=3 independent experiments. The method, then:
(§1) For measuring IP accumulation, HEK293 cells grown to 70–80% confluency in 6-well plates were transiently co-transfected using Metafectene Pro (2.5 μl/μg DNA; Biontex) with plasmids containing receptor and/or mock (empty pcDNA3.1) (for endogenous Gq-coupling) using 4 μg total DNA in a ratio of 3:1 following the manufacturer’s instructions. For testing Gα16- and GαΔ6qi4myr-coupling, plasmids encoding the corresponding Gα protein were co-transfected instead of mock. Gα16 is naturally promiscuous and stimulates the phospholipase C (PLC) pathway leading to IP production, while the exchange of the C-terminal four amino acids of Gαq for the corresponding residues of Gαi1 in the chimeric GαΔ6qi4myr confers the ability to couple to Gi/o protein-preferring receptors but still stimulate PLC, thus specifically redirecting downstream cellular signaling. 16 h post transfection, the cells were seeded into white 384-well plates at a density of 20,000 cells/well. Media was removed 24 h later and the cells were incubated with the indicated concentration of peptides for 1 h in HBSS + 20 mM LiCl. IP accumulation was measured with the HTRF-based IP-One Gq kit (Cisbio) on a microplate reader (Tecan Spark).
(§2) For in vitro activation, data is presented as mean ± SEM of at least three independent experiments conducted in technical triplicate. […] For the C. elegans NPRs, we considered the strongest response elicited by any of the peptides downstream of a particular receptor as the receptor’s maximal signal. This may or may not be the biological maximum that can be reached by the ‘true’ endogenous agonist. For the human receptors, the response to the established endogenous agonist reflected the maximal signal.
In general terms: Time-resolved FRET reads energy transfer from a long-lived donor to a nearby acceptor.

In the next experiment the target is T1, NPR-1 (Caenorhabditis elegans, UniProt Q18534).
T1 sequence (Q18534 1-457): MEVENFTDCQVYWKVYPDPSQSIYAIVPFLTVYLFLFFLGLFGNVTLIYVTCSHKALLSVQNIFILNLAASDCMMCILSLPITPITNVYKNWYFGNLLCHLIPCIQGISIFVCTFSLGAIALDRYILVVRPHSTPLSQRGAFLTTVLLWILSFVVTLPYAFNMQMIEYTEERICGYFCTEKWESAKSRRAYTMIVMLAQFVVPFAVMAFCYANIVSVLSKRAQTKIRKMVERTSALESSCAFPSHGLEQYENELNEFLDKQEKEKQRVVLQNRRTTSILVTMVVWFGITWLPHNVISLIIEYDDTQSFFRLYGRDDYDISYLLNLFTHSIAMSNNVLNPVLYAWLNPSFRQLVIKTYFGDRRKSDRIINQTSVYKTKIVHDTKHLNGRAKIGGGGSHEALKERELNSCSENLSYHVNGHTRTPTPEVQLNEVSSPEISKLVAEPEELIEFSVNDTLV
The experiment in a line: IP accumulation assay, endogenous Gαq + mock, NPR-1. Also on record: host or cells: HEK293. It counts as cell-based, C. elegans. Particulars: 1 h, HBSS + 20 mM LiCl, HEK293 receptor + empty vector, HTRF IP-One, mean of >=3 independent experiments. On the procedure:
as §1
(§3) For in vitro activation, data is presented as mean ± SEM of at least three independent experiments conducted in technical triplicate. […]

For experiment [2], the target named is T2, NPR-3 (Caenorhabditis elegans, UniProt P90745).
T2 construct: expressed in transfected cells; host or cells: HEK293
T2 sequence (P90745 1-376): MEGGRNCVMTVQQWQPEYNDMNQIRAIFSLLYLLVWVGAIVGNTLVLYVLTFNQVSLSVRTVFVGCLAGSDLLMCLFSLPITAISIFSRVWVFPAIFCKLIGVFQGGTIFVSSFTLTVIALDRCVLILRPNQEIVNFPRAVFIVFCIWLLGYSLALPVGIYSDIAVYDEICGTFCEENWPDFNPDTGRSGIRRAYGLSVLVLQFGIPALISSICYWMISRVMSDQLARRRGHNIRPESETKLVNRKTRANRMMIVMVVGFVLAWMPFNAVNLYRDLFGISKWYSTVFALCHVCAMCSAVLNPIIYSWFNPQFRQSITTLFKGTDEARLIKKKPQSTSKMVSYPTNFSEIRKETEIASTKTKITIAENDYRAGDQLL
Description: IP accumulation assay, endogenous Gαq + mock, NPR-3. It counts as cell-based, C. elegans. Particulars: 1 h, HBSS + 20 mM LiCl, HEK293 receptor + empty vector, HTRF IP-One, mean of >=3 independent experiments. On the procedure: as §1, §3

Experiment [3] has as its target T2, NPR-3. Description: IP accumulation assay, co-transfected Gα16, NPR-3. It counts as cell-based, C. elegans. Particulars: 1 h, HBSS + 20 mM LiCl, HEK293 receptor + Gα16, HTRF IP-One, mean of >=3 independent experiments. On the procedure:
as §1, §3

The next experiment addresses T3, NPR-5b (Caenorhabditis elegans, UniProt Q6F3C9).
T3 sequence (Q6F3C9 1-433): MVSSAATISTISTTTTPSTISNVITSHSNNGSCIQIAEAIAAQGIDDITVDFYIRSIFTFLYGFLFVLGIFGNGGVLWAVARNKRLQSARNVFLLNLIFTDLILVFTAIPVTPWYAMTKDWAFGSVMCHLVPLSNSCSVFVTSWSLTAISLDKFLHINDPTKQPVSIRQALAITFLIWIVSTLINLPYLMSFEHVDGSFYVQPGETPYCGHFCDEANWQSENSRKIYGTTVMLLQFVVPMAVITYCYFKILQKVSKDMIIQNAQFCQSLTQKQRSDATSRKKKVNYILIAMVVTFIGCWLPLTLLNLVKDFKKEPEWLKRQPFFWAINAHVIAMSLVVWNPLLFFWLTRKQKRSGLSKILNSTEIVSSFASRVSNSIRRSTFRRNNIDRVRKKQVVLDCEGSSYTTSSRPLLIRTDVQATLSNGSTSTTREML
The experiment in a line: cAMP reporter gene assay, Gs (no forskolin), NPR-5b. It is filed as cell-based, C. elegans. Particulars: no forskolin, 4 h, transiently transfected HEK293, CRE-luciferase reporter, mean of >=3 independent experiments. On the procedure: Activation of Gs and Gi/o was assessed with a cAMP reporter gene assay. HEK293 cells grown to 70–80% confluency in 6-well plates were transiently co-transfected with vectors encoding the receptor and the cAMP reporter gene plasmid pGL4.29 [luc2P/CRE/Hygro] (Promega; 4 μg total, 1:1 ratio) using Metafectene Pro (3 μl/μg DNA; Biontex) following the manufacturer’s instructions. 16 h post transfection, the cells were seeded into white 384-well plates at a density of 20,000 cells/well. On the next day, the medium was removed and the cells were stimulated with 20 μl of peptide solution (or forskolin as positive control) in serum-free DMEM for 4 h. For measuring Gi/o activity, the peptide solutions additionally contained 1 μM forskolin to elevate cellular cAMP levels. After incubation, the luciferase substrate OneGlo in lysis buffer (Promega) was added and the luminescence was measured in a microplate reader Tecan Spark (Tecan). Data were analyzed with GraphPad Prism 5.03 and are shown as fold of basal or fold of forskolin in case of Gαi/o activity.
as §2

Setting [4] is: 0.1 nM peptide (so in the source).

In the case of “AGSDPNFLRF-NH2 [FLP-1-2, C. elegans FMRFamide-like peptide, C-terminally amidated, synthesized by SPPS]”, the “IP accumulation, mock” value in experiment [1] (0.1 µM peptide) is listed as 4.14 x-fold of basal; in experiment [1] (10 µM peptide), 1.78 x-fold of basal.
Consider “APKPKFIRF-NH2 [FLP-5-1, C. elegans FMRFamide-like peptide, C-terminally amidated, synthesized by SPPS]”, for which the results for the “IP assay endog. Gαq + mock, NPR-1” value at NPR-1 (setting [4]) and at NPR-1 (10 µM peptide) were 0.89 x-fold of basal and 0.94 x-fold of basal, respectively. In addition, the entries for the “IP assay endog. Gαq + mock, NPR-3” value at NPR-3 [2] (setting [4]) and at NPR-3 [2] (10 µM peptide) were 0.92 x-fold of basal and 1.07 x-fold of basal, respectively. The figures for the “IP assay endog. Gαq + Gα16, NPR-3” value at NPR-3 [3] (setting [4]) and on NPR-3 [3] (10 µM peptide) were 0.93 x-fold of basal and 0.81 x-fold of basal, respectively. Also, the “cAMP assay Gs, NPR-5b” value at NPR-5b (0.1 µM peptide) and on NPR-5b (10 µM peptide) was 0.68 x-fold of basal throughout. The “IP accumulation, mock” value in experiment [1] (0.1 µM peptide) is 1.08 x-fold of basal; in experiment [1] (10 µM peptide), 1.01 x-fold of basal.
For the substance “ASPSFIRF-NH2 [FLP-4-2, C. elegans FMRFamide-like peptide, C-terminally amidated, synthesized by SPPS]”, the “IP accumulation, mock” value in experiment [1] (0.1 µM peptide) and in experiment [1] (10 µM peptide) was 0.75 x-fold of basal each time.
Consider “NPENDTPFGTMRF-NH2 [FLP-3-4, C. elegans FMRFamide-like peptide, C-terminally amidated, synthesized by SPPS]”, for which the “IP accumulation, mock” value is recorded as 1.08 x-fold of basal in experiment [1] (0.1 µM peptide) and 1.16 x-fold of basal in experiment [1] (10 µM peptide).
